{"source": "patent US9499550B2", "about": "(BRISTOL-MYERS SQUIBB COMPANY, priority 2012, dated 2016)", "key": {"[1]": {"test_system": "HCV genotype 1b (Con1) replicon in HUH-7 cells", "assay": "HCV replicon luciferase reporter assay, genotype 1b", "assay_type": "cell-based", "conditions": "Hepatitis C virus, Huh-7, 72 h, HCV genotype 1b replicon luciferase, 3 days incubation", "method_in_brief": "(§1)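 Replicon inhibition for both genotypes was measured as Renilla luciferase signal (EnduRen, 7.5 μM final, 2 h) after 3-day, 37° C exposure of replicon-bearing HUH-7 cells in 4% FCS DMEM, 0.5% DMSO. The 1b construct carries S1179I; the 1a H77 construct carries P1496L and S2204I. Twenty-point, 3-fold dilutions were fitted four-parametrically for EC50, and CC50 was taken from multiplexed Cell Titer-Blue.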"}, "[2]": {"test_system": "HCV genotype 1a (H77 strain) replicon in HUH-7 cells", "assay": "HCV replicon luciferase reporter assay, genotype 1a", "assay_type": "cell-based", "conditions": "Hepatitis C virus, Huh-7, 72 h, HCV genotype 1a replicon luciferase, 3 days incubation", "method_in_brief": "as §1"}}, "note": "Like-named read-outs stand apart in the source and are kept apart here."}
{"smiles": "CCCOc1cnc(O[C@@H]2C[C@H]3C(=O)N[C@]4(C(=O)NS(=O)(=O)C5(C)CC5)C[C@H]4/C=C\\CC[C@H](C)C[C@@H](C)[C@H](NC(=O)O[C@@H]4C[C@@H]5C[C@@H]5C4)C(=O)N3C2)c2ccccc12", "note": "[Compound 5080, (1R,3r,5S)-bicyclo[3.1.0]hexan-3-yl((2R,6S,7R,9S,13aS,14aR,16aS,Z)-7,9-dimethyl-14a-(((1-methylcyclopropyl)sulfonyl)carbamoyl)-5,16-dioxo-2-((4-propoxyisoquinolin-1-yl)oxy)-1,2,3,5,6,7,8,9,10,11,13a,14,14a,15,16,16a-hexadecahydrocyclopropa[e]pyrrolo[1,2-a][1,4]diazacyclopentadecin-6-yl)carbamate]", "values": [{"measurement": "EC50", "setting": "[1]; read-out: LE_1b (EC50, range)", "value": "4.82 to 103", "unit": "nM"}, {"measurement": "EC50", "setting": "[2]; read-out: LE_1a (EC50, range)", "value": "> 87.4", "unit": "nM"}]}
{"smiles": "CCCOc1cnc(O[C@@H]2C[C@H]3C(=O)N[C@]4(C(=O)NS(=O)(=O)C5(C)CC5)C[C@H]4/C=C\\CC[C@@H](C)C[C@@H](C)[C@H](NC(=O)O[C@@H]4C[C@@H]5C[C@@H]5C4)C(=O)N3C2)c2ccccc12", "note": "[Compound 5081, (1R,3r,5S)-bicyclo[3.1.0]hexan-3-yl((2R,6S,7R,9R,13aS,14aR,16aS,Z)-7,9-dimethyl-14a-(((1-methylcyclopropyl)sulfonyl)carbamoyl)-5,16-dioxo-2-((4-propoxyisoquinolin-1-yl)oxy)-1,2,3,5,6,7,8,9,10,11,13a,14,14a,15,16,16a-hexadecahydrocyclopropa[e]pyrrolo[1,2-a][1,4]diazacyclopentadecin-6-yl)carbamate]", "values": [{"measurement": "EC50", "setting": "[1]; read-out: LE_1b (EC50, range)", "value": "< 5.46", "unit": "nM"}, {"measurement": "EC50", "setting": "[2]; read-out: LE_1a (EC50, range)", "value": "4.82 to 103", "unit": "nM"}]}
{"smiles": "CCCOc1cnc(O[C@@H]2C[C@H]3C(=O)N[C@]4(C(=O)NS(=O)(=O)C5(C)CC5)C[C@H]4/C=C\\CC[C@H](C)C[C@@H](C)[C@H](NC(=O)OCC4(C)CC4)C(=O)N3C2)c2ccccc12", "note": "[Compound 5082, (1-methylcyclopropyl)methyl ((2R,6S,7R,9S,13aS,14aR,16aS,Z)-7,9-dimethyl-14a-(((1-methylcyclopropyl)sulfonyl)carbamoyl)-5,16-dioxo-2-((4-propoxyisoquinolin-1-yl)oxy)-1,2,3,5,6,7,8,9,10,11,13a,14,14a,15,16,16a-hexadecahydrocyclopropa[e]pyrrolo[1,2-a][1,4]diazacyclopentadecin-6-yl)carbamate]", "values": [{"measurement": "EC50", "setting": "[1]; read-out: LE_1b (EC50)", "value": 45.5, "unit": "nM"}, {"measurement": "EC50", "setting": "[1]; read-out: LE_1b (EC50, range)", "value": "4.82 to 103", "unit": "nM"}, {"measurement": "EC50", "setting": "[2]; read-out: LE_1a (EC50)", "value": 198, "unit": "nM"}, {"measurement": "EC50", "setting": "[2]; read-out: LE_1a (EC50, range)", "value": "> 87.4", "unit": "nM"}]}
{"smiles": "CCCOc1cnc(O[C@@H]2C[C@H]3C(=O)N[C@]4(C(=O)NS(=O)(=O)C5(C)CC5)C[C@H]4/C=C\\CC[C@@H](C)C[C@@H](C)[C@H](NC(=O)OCC4(C)CC4)C(=O)N3C2)c2ccccc12", "note": "[Compound 5083, (1-methylcyclopropyl)methyl ((2R,6S,7R,9R,13aS,14aR,16aS,Z)-7,9-dimethyl-14a-(((1-methylcyclopropyl)sulfonyl)carbamoyl)-5,16-dioxo-2-((4-propoxyisoquinolin-1-yl)oxy)-1,2,3,5,6,7,8,9,10,11,13a,14,14a,15,16,16a-hexadecahydrocyclopropa[e]pyrrolo[1,2-a][1,4]diazacyclopentadecin-6-yl)carbamate]", "values": [{"measurement": "EC50", "setting": "[1]; read-out: LE_1b (EC50, range)", "value": "< 5.46", "unit": "nM"}, {"measurement": "EC50", "setting": "[2]; read-out: LE_1a (EC50, range)", "value": "< 5.46", "unit": "nM"}]}
{"smiles": "CCCOc1cnc(O[C@@H]2C[C@H]3C(=O)N[C@]4(C(=O)NS(=O)(=O)C5(C)CC5)C[C@H]4/C=C\\CC[C@H](C)C[C@@H](C)[C@H](NC(=O)O[C@H](C)C(F)(F)F)C(=O)N3C2)c2ccccc12", "note": "[Compound 5084, (R)-1,1,1-trifluoropropan-2-yl ((2R,6S,7R,9S,13aS,14aR,16aS,Z)-7,9-dimethyl-14a-(((1-methylcyclopropyl)sulfonyl)carbamoyl)-5,16-dioxo-2-((4-propoxyisoquinolin-1-yl)oxy)-1,2,3,5,6,7,8,9,10,11,13a,14,14a,15,16,16a-hexadecahydrocyclopropa[e]pyrrolo[1,2-a][1,4]diazacyclopentadecin-6-yl)carbamate]", "values": [{"measurement": "EC50", "setting": "[1]; read-out: LE_1b (EC50)", "value": 131, "unit": "nM"}, {"measurement": "EC50", "setting": "[1]; read-out: LE_1b (EC50, range)", "value": "> 87.4", "unit": "nM"}, {"measurement": "EC50", "setting": "[2]; read-out: LE_1a (EC50)", "value": 520, "unit": "nM"}, {"measurement": "EC50", "setting": "[2]; read-out: LE_1a (EC50, range)", "value": "> 87.4", "unit": "nM"}]}
{"smiles": "CCCOc1cnc(O[C@@H]2C[C@H]3C(=O)N[C@]4(C(=O)NS(=O)(=O)C5(C)CC5)C[C@H]4/C=C\\CC[C@@H](C)C[C@@H](C)[C@H](NC(=O)O[C@H](C)C(F)(F)F)C(=O)N3C2)c2ccccc12", "note": "[Compound 5085, (R)-1,1,1-trifluoropropan-2-yl ((2R,6S,7R,9R,13aS,14aR,16aS,Z)-7,9-dimethyl-14a-(((1-methylcyclopropyl)sulfonyl)carbamoyl)-5,16-dioxo-2-((4-propoxyisoquinolin-1-yl)oxy)-1,2,3,5,6,7,8,9,10,11,13a,14,14a,15,16,16a-hexadecahydrocyclopropa[e]pyrrolo[1,2-a][1,4]diazacyclopentadecin-6-yl)carbamate]", "values": [{"measurement": "EC50", "setting": "[1]; read-out: LE_1b (EC50, range)", "value": "4.82 to 103", "unit": "nM"}, {"measurement": "EC50", "setting": "[2]; read-out: LE_1a (EC50, range)", "value": "4.82 to 103", "unit": "nM"}]}
{"smiles": "CCCOc1cnc(O[C@@H]2C[C@H]3C(=O)N[C@]4(C(=O)NS(=O)(=O)C5(C)CC5)C[C@H]4/C=C\\CC[C@H](C)C[C@@H](C)[C@H](NC(=O)NC(C)(C)C(F)(F)F)C(=O)N3C2)c2ccccc12", "note": "[Compound 5086, (2R,6S,7R,9S,13aS,14aR,16aS,Z)-7,9-dimethyl-N-((1-methylcyclopropyl)sulfonyl)-5,16-dioxo-2-((4-propoxyisoquinolin-1-yl)oxy)-6-(3-(1,1,1-trifluoro-2-methylpropan-2-yl)ureido)-1,2,3,5,6,7,8,9,10,11,13a,14,14a,15,16,16a-hexadecahydrocyclopropa[e]pyrrolo[1,2-a][1,4]diazacyclopentadecine-14a-carboxamide]", "values": [{"measurement": "EC50", "setting": "[1]; read-out: LE_1b (EC50)", "value": 155, "unit": "nM"}, {"measurement": "EC50", "setting": "[1]; read-out: LE_1b (EC50, range)", "value": "> 87.4", "unit": "nM"}, {"measurement": "EC50", "setting": "[2]; read-out: LE_1a (EC50)", "value": 411, "unit": "nM"}, {"measurement": "EC50", "setting": "[2]; read-out: LE_1a (EC50, range)", "value": "> 87.4", "unit": "nM"}]}
{"smiles": "CCCOc1cnc(O[C@@H]2C[C@H]3C(=O)N[C@]4(C(=O)NS(=O)(=O)C5(C)CC5)C[C@H]4/C=C\\CC[C@@H](C)C[C@@H](C)[C@H](NC(=O)NC(C)(C)C(F)(F)F)C(=O)N3C2)c2ccccc12", "note": "[Compound 5087, (2R,6S,7R,9R,13aS,14aR,16aS,Z)-7,9-dimethyl-N-((1-methylcyclopropyl)sulfonyl)-5,16-dioxo-2-((4-propoxyisoquinolin-1-yl)oxy)-6-(3-(1,1,1-trifluoro-2-methylpropan-2-yl)ureido)-1,2,3,5,6,7,8,9,10,11,13a,14,14a,15,16,16a-hexadecahydrocyclopropa[e]pyrrolo[1,2-a][1,4]diazacyclopentadecine-14a-carboxamide]", "values": [{"measurement": "EC50", "setting": "[1]; read-out: LE_1b (EC50, range)", "value": "< 5.46", "unit": "nM"}, {"measurement": "EC50", "setting": "[2]; read-out: LE_1a (EC50, range)", "value": "< 5.46", "unit": "nM"}]}
{"smiles": "CCCOc1cnc(O[C@@H]2C[C@H]3C(=O)N[C@]4(C(=O)NS(=O)(=O)C5CC5)C[C@H]4/C=C\\CC[C@H](C)C[C@@H](C)[C@H](NC(=O)OC(C)(C)C)C(=O)N3C2)c2ccccc12", "note": "[Compound 5088, tert-butyl ((2R,6S,7R,9S,13aS,14aR,16aS,Z)-14a-((cyclopropylsulfonyl)carbamoyl)-7,9-dimethyl-5,16-dioxo-2-((4-propoxyisoquinolin-1-yl)oxy)-1,2,3,5,6,7,8,9,10,11,13a,14,14a,15,16,16a-hexadecahydrocyclopropa[e]pyrrolo[1,2-a][1,4]diazacyclopentadecin-6-yl)carbamate]", "values": [{"measurement": "EC50", "setting": "[1]; read-out: LE_1b (EC50)", "value": 20.3, "unit": "nM"}, {"measurement": "EC50", "setting": "[1]; read-out: LE_1b (EC50, range)", "value": "4.82 to 103", "unit": "nM"}, {"measurement": "EC50", "setting": "[2]; read-out: LE_1a (EC50)", "value": 103, "unit": "nM"}, {"measurement": "EC50", "setting": "[2]; read-out: LE_1a (EC50, range)", "value": "> 87.4", "unit": "nM"}]}
{"smiles": "CCCOc1cnc(O[C@@H]2C[C@H]3C(=O)N[C@]4(C(=O)NS(=O)(=O)C5CC5)C[C@H]4/C=C\\CC[C@@H](C)C[C@@H](C)[C@H](NC(=O)OC(C)(C)C)C(=O)N3C2)c2ccccc12", "note": "[Compound 5089, tert-butyl ((2R,6S,7R,9R,13aS,14aR,16aS,Z)-14a-((cyclopropylsulfonyl)carbamoyl)-7,9-dimethyl-5,16-dioxo-2-((4-propoxyisoquinolin-1-yl)oxy)-1,2,3,5,6,7,8,9,10,11,13a,14,14a,15,16,16a-hexadecahydrocyclopropa[e]pyrrolo[1,2-a][1,4]diazacyclopentadecin-6-yl)carbamate]", "values": [{"measurement": "EC50", "setting": "[1]; read-out: LE_1b (EC50, range)", "value": "< 5.46", "unit": "nM"}, {"measurement": "EC50", "setting": "[2]; read-out: LE_1a (EC50, range)", "value": "< 5.46", "unit": "nM"}]}
{"smiles": "CCCOc1cnc(O[C@@H]2C[C@H]3C(=O)N[C@]4(C(=O)NS(=O)(=O)C5CC5)C[C@H]4/C=C\\CC[C@H](C)C[C@@H](C)[C@H](NC(=O)OC(C)(C)C(F)(F)F)C(=O)N3C2)c2ccccc12", "note": "[Compound 5090, 1,1,1-trifluoro-2-methylpropan-2-yl((2R,6S,7R,9S,13aS,14aR,16aS,Z)-14a-((cyclopropylsulfonyl)carbamoyl)-7,9-dimethyl-5,16-dioxo-2-((4-propoxyisoquinolin-1-yl)oxy)-1,2,3,5,6,7,8,9,10,11,13a,14,14a,15,16,16a-hexadecahydrocyclopropa[e]pyrrolo[1,2-a][1,4]diazacyclopentadecin-6-yl)carbamate]", "values": [{"measurement": "EC50", "setting": "[1]; read-out: LE_1b (EC50)", "value": 87.4, "unit": "nM"}, {"measurement": "EC50", "setting": "[1]; read-out: LE_1b (EC50, range)", "value": "4.82 to 103", "unit": "nM"}, {"measurement": "EC50", "setting": "[2]; read-out: LE_1a (EC50)", "value": 522, "unit": "nM"}, {"measurement": "EC50", "setting": "[2]; read-out: LE_1a (EC50, range)", "value": "> 87.4", "unit": "nM"}]}
{"smiles": "CCCOc1cnc(O[C@@H]2C[C@H]3C(=O)N[C@]4(C(=O)NS(=O)(=O)C5CC5)C[C@H]4/C=C\\CC[C@H](C)C[C@@H](C)[C@H](NC(=O)O[C@@H]4C[C@@H]5C[C@@H]5C4)C(=O)N3C2)c2ccccc12", "note": "[Compound 5092, (1R,3r,5S)-bicyclo[3.1.0]hexan-3-yl((2R,6S,7R,9S,13aS,14aR,16aS,Z)-14a-((cyclopropylsulfonyl)carbamoyl)-7,9-dimethyl-5,16-dioxo-2-((4-propoxyisoquinolin-1-yl)oxy)-1,2,3,5,6,7,8,9,10,11,13a,14,14a,15,16,16a-hexadecahydrocyclopropa[e]pyrrolo[1,2-a][1,4]diazacyclopentadecin-6-yl)carbamate]", "values": [{"measurement": "EC50", "setting": "[1]; read-out: LE_1b (EC50, range)", "value": "4.82 to 103", "unit": "nM"}, {"measurement": "EC50", "setting": "[2]; read-out: LE_1a (EC50, range)", "value": "> 87.4", "unit": "nM"}]}
